Key:
human monocytes = experiment: ROS formation in human monocytes (DCF, FACS); format: cell-based; settings: overnight; VB-201 10 μg/ml, PGPC 10 μg/ml, OxPAPC 100 μg/ml; relative to PBS
Description: Detection of ROS was performed through FACS quantification of the oxidation product dichlorodihydrofluorescein (DCF). Data are mean±SD from 3-4 experiments performed in duplicates. FIG. 23B is a histogram from a representative experiment showing DCF levels in treated cells.

[1] = tested on: Human monocytes (CD14+ cells); experiment: In vitro cell migration (trans-well chemotaxis) assay of human monocytes; format: cell-based; settings: for reduction of monocyte chemotaxis towards MCP-1 and RANTES (50 ng/ml each): 30 min pre-incubation, PC 5 μg/ml, partially oxidized PAPC 40 μg/ml, PGPC 5 μg/ml, VB-201 5 μg/ml
Description: Following incubation, cells were loaded to the upper chamber and allowed to migrate for 3.5 hours towards 0.5% fetal bovine serum/RPMI-1640 medium supplemented with recombinant human MCP-1 and RANTES (50 ng/ml each).
In order to further ascertain the significance of ERK1/2 phosphorylation and MEK1/2 phosphorylation to monocyte chemotaxis, the effect of the RAF inhibitor GW5074, which reduces MEK and ERK phosphorylation, on monocyte chemotaxis was determined in a trans-well migration assay using a combination of MCP-1 ([…]) and RANTES (70 ng/ml) as attractant. Monocytes were pre-treated with 5 μM GW5074 for 30 minutes prior to seeding in the migration chamber.
For this purpose, monocytes from healthy donors were pre-incubated for 30 min with either solvent (0.005% ethanol/PBS), phosphatidylcholine (PC; 5 μg/ml), partially oxidized PAPC (24 h oxidation; 40 μg/ml) or PGPC (5 μg/ml), and allowed to migrate towards recombinant human MCP-1 (CCL2; ligand for CCR2) and RANTES (CCL5; ligand for CCR1, CCR3, CCR5, US28) as attractants (50 ng/ml each). […]

TLR4 = molecular target: T1, TLR4 (Mus musculus, UniProt Q9QUK6); settings: RAW 264.7 murine macrophages
T1 sequence (Q9QUK6 26-835): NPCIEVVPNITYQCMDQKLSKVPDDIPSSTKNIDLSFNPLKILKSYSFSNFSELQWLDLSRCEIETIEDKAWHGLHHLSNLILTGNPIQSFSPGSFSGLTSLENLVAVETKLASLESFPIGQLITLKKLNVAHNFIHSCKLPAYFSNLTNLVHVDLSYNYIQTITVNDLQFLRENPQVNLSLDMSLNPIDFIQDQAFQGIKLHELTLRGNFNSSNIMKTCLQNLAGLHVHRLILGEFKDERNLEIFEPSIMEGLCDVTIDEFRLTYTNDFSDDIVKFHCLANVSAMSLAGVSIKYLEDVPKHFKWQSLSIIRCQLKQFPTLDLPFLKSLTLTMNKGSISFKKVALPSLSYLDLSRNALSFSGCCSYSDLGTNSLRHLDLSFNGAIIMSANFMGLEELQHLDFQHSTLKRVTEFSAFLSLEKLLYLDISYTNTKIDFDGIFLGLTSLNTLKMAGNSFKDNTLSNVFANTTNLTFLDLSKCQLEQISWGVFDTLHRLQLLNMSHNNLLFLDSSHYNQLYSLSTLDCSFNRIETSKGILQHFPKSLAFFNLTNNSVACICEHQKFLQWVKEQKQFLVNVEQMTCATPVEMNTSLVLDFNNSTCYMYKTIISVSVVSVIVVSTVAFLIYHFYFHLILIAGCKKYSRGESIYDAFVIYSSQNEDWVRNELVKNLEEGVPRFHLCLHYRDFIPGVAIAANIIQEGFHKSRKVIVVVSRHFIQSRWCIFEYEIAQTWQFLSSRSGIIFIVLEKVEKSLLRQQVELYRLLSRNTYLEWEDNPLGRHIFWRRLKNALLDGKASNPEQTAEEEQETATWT
T1 sequence (Q9JHF9 19-160 partner): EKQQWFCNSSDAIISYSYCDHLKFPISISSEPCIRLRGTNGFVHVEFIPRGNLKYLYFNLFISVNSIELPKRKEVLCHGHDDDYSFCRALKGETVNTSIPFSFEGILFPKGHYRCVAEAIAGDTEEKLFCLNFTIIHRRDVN
Description: Cells were washed and re-suspended in lysis buffer containing 1:100 dithiothreitol (DTT) (Bio-Lab), and phosphatase and protease inhibitors (Thermo Scientific). Samples were loaded on a precasted Criterion TGX gel (BIO-RAD, UK) and transferred onto nitrocellulose membrane. Blots were blocked with 5% milk or bovine serum albumin (BSA) in TBST (Tris buffer saline with TWEEN 20) for 1 hour, followed by incubation with primary and secondary antibodies. Membranes were developed using the ECL kit (Thermo Scientific).
Toll-like receptors were activated in mouse BMDCs (bone marrow dendritic cells) by specific agonists, and the effect of receptor activation was determined via Western blot for phosphorylation of p38 MAP kinase, which is downstream of TLRs.

THP-1 cells = experiment: Trans-well chemotaxis assay of THP-1 cells; format: cell-based, human; settings: Wortmannin 1 μmol/L, Rapamycin 1.1 μmol/L, GW5074 1 μmol/L
Description: For chemo-attraction of monocytes, RANTES (100 ng/ml), MIP-1α (50 ng/ml) or MCP-1 (50 ng/ml) were dissolved in 0.5% fetal bovine serum(FBS)/RPMI-1640 medium and placed at the lower chamber of QCM™ 24-well migration assay plate (Corning-Costar; 5 μm pores). For chemo-attraction of CD4+ cells, 0.5% FBS/RPMI-1640 solution containing RANTES (100 ng/ml) and SDF-1α (50 ng/ml) was used, using the same plate setting. Migration assay was conducted by seeding 300,000 treated cells in the upper chamber, followed by incubation of 3-4 hours. Subsequently, the number of cells which migrated to the medium in the lower compartment was determined by FACS.
Data are mean f SD from 4 experiments in triplicates, normalized to untreated cells. **, p<0.001.

## CCCCCCCCCCCCCCCC(=O)OCC(COP(=O)([O-])OCC[N+](C)(C)C)OC(=O)CCCC(=O)O (stereo not drawn) [PGPC, 1-palmitoyl-2-glutaryl-phosphatidylcholine, reference compound]
Human monocytes
  ROS formation in human monocytes: no effect on ROS formation
[1]
  reduction of monocyte chemotaxis towards MCP-1 and RANTES (50 ng/ml each): ~50%

## CCCCCCCCOC[C@H](COP(=O)([O-])OCC[N+](C)(C)C)OCCCCC(=O)O [VB-207, (R)-1-octyl-2-(4′-carboxyl)butyl-sn-glycero-3-phosphocholine]
TLR4
  LPS-induced signaling: neither VB-207 nor OB-VB207 exhibited such an inhibitory effect

## phosphatidylcholine [PC, reference compound]
[1]
  reduction of monocyte chemotaxis towards MCP-1 and RANTES (50 ng/ml each): did not reduce the number of migrating cells

## O=C1Nc2ccc(I)cc2C1=Cc1cc(Br)c(O)c(Br)c1 [GW5074, 3-(3,5-dibromo-4-hydroxy-benzylidene)-5-iodo-1,3-dihydro-indol-2-one, reference compound]
THP-1 cells
  chemotaxis of THP-1 cells in vitro: decrease chemotaxis of THP-1 cells
[1]; 5 μM GW5074, 30 minutes, MCP-1 (50 ng/nl) and RANTES (70 ng/ml)
  reduction of monocyte migration: about 80%
